Tested on: MV-4-11 cells
Experiment: Gene expression microarray analysis (Affymetrix PrimeView) and GSEA
Type: cell-based, human
Set-up: RFU PODN (11730768_x_at) / Fold change /veh PODN (11730768_x_at) / RFU LINC00158 (11744669_a_at) / Fold change /veh LINC00158 (11744669_a_at) / RFU DUSP10 (11751237_a_at) / Fold change /veh DUSP10 (11751237_a_at) / RFU ID3 (11757404_x_at) / Fold change /veh ID3 (11757404_x_at) / RFU PLEKHG5 (11737974_s_at) / Fold change /veh PLEKHG5 (11737974_s_at) / RFU LRRC4B (11730491_at) / Fold change /veh LRRC4B (11730491_at) / RFU GIMAP4 (11747438_a_at) / Fold change /veh GIMAP4 (11747438_a_at) / RFU KRT8 (11758183_x_at) / Fold change /veh KRT8 (11758183_x_at) / RFU CNN1 (11734310_a_at) / Fold change /veh CNN1 (11734310_a_at) / RFU VPS37D (11726825_at) / Fold change /veh VPS37D (11726825_at) / RFU C10orf10 (11716522_x_at) / Fold change /veh C10orf10 (11716522_x_at) / RFU KIR2DL2 /// KIR2DL4 /// KIR2DL5A /// KIR2DL5B /// KIR2DS1 /// KIR2DS2 /// KIR2DS3 /// KIR2DS4 /// KIR3DL3 /// KIR3DL3 /// KIR3DS1 (11738374_at) / Fold change /veh KIR2DL2 /// KIR2DL4 /// KIR2DL5A /// KIR2DL5B /// KIR2DS1 /// KIR2DS2 /// KIR2DS3 /// KIR2DS4 /// KIR3DL3 /// KIR3DL3 /// KIR3DS1 (11738374_at) / RFU C1QL1 (11718748_at) / Fold change /veh C1QL1 (11718748_at) / RFU TMPRSS4 (11747572_a_at) / Fold change /veh TMPRSS4 (11747572_a_at) / RFU HAMP (11756126_x_at) / Fold change /veh HAMP (11756126_x_at) / RFU RNFT2 (11725882_a_at) / Fold change /veh RNFT2 (11725882_a_at) / RFU NR4A2 (11747474_a_at) / Fold change /veh NR4A2 (11747474_a_at) / RFU ABCC12 (11746883_a_at) / Fold change /veh ABCC12 (11746883_a_at) / RFU TMEM136 (11760407_x_at) / Fold change /veh TMEM136 (11760407_x_at) / RFU CLDN22 /// WWC2 (11732394_at) / Fold change /veh CLDN22 /// WWC2 (11732394_at) / RFU HLA-DPB1 (11760878_x_at) / Fold change /veh HLA-DPB1 (11760878_x_at) / RFU SPINT1 (11716480_a_at) / Fold change /veh SPINT1 (11716480_a_at) / RFU GAP43 (11754022_s_at) / Fold change /veh GAP43 (11754022_s_at) / RFU A4GNT (11735810_at) / Fold change /veh A4GNT (11735810_at) / RFU PRB3 (11715151_x_at) / Fold change /veh PRB3 (11715151_x_at) / RFU TUBB4B (11761932_at) / Fold change /veh TUBB4B (11761932_at) / RFU CAPN14 (11732068_a_at) / Fold change /veh CAPN14 (11732068_a_at) / RFU TMCC2 (11721928_a_at) / Fold change /veh TMCC2 (11721928_a_at) / RFU IRGQ (11745062_a_at) / Fold change /veh IRGQ (11745062_a_at) / RFU FAM174B (11720279_a_at) / Fold change /veh FAM174B (11720279_a_at) / RFU TMPRSS4 (11748680_a_at) / Fold change /veh TMPRSS4 (11748680_a_at) / RFU FAM212B (11763350_a_at) / Fold change /veh FAM212B (11763350_a_at) / RFU PLEKHG5 (11743358_a_at) / Fold change /veh PLEKHG5 (11743358_a_at) / RFU ZSCAN30 (11745921_a_at) / Fold change /veh ZSCAN30 (11745921_a_at) / RFU CMKLR1 (11741424_a_at) / Fold change /veh CMKLR1 (11741424_a_at) / RFU LOC101060620 /// MAPK8IP1 (11723275_at) / Fold change /veh LOC101060620 /// MAPK8IP1 (11723275_at) / RFU SPTSSB (11747773_x_at) / Fold change /veh SPTSSB (11747773_x_at) / RFU PRSS12 (11739890_at) / Fold change /veh PRSS12 (11739890_at) / RFU BIN1 (11741810_x_at) / Fold change /veh BIN1 (11741810_x_at) / RFU WNT11 (11732464_a_at) / Fold change /veh WNT11 (11732464_a_at) / RFU C10orf10 (11716521_a_at) / Fold change /veh C10orf10 (11716521_a_at) / RFU C5orf56 (11738089_at) / Fold change /veh C5orf56 (11738089_at) / RFU CYB561 (11721691_x_at) / Fold change /veh CYB561 (11721691_x_at) / RFU ANKRD19P (11752326_a_at) / Fold change /veh ANKRD19P (11752326_a_at) / RFU OR2T12 /// OR2T33 /// OR2T8 (11738714_s_at) / Fold change /veh OR2T12 /// OR2T33 /// OR2T8 (11738714_s_at) / RFU VCAN (11748164_a_at) / Fold change /veh VCAN (11748164_a_at) / RFU JSRP1 (11732532_at) / Fold change /veh JSRP1 (11732532_at) / RFU KRTAP10-11 (11738290_x_at) / Fold change /veh KRTAP10-11 (11738290_x_at) / RFU MYO3A (11730013_a_at) / Fold change /veh MYO3A (11730013_a_at) / RFU EBF3 (11725865_a_at) / Fold change /veh EBF3 (11725865_a_at) / RFU CAMK2N1 (11719241_x_at) / Fold change /veh CAMK2N1 (11719241_x_at) / RFU C5orf56 (11738088_a_at) / Fold change /veh C5orf56 (11738088_a_at) / RFU OLFML3 (11715873_a_at) / Fold change /veh OLFML3 (11715873_a_at) / RFU LOC100653217 /// NTM (11731650_a_at) / Fold change /veh LOC100653217 /// NTM (11731650_a_at) / RFU MAPK11 (11762145_a_at) / Fold change /veh MAPK11 (11762145_a_at) / RFU FIZ1 (11724087_x_at) / Fold change /veh FIZ1 (11724087_x_at) / RFU OASL (11726364_x_at) / Fold change /veh OASL (11726364_x_at) / RFU SOX15 (11748057_x_at) / Fold change /veh SOX15 (11748057_x_at) / RFU CD79A (11719716_a_at) / Fold change /veh CD79A (11719716_a_at) / RFU HIST1H1D (11736915_at) / Fold change /veh HIST1H1D (11736915_at) / RFU CASKIN2 (11723855_a_at) / Fold change /veh CASKIN2 (11723855_a_at) / RFU LOC730098 (11760151_x_at) / Fold change /veh LOC730098 (11760151_x_at) / RFU OR4N2 (11742367_at) / Fold change /veh OR4N2 (11742367_at) / RFU PRRT2 (11749266_a_at) / Fold change /veh PRRT2 (11749266_a_at) / RFU SNX32 (11753110_a_at) / Fold change /veh SNX32 (11753110_a_at) / RFU CDHR5 (11726645_a_at) / Fold change /veh CDHR5 (11726645_a_at) / RFU RCAN1 (11760418_a_at) / Fold change /veh RCAN1 (11760418_a_at) / RFU FAM167A (11723789_a_at) / Fold change /veh FAM167A (11723789_a_at) / RFU FAM26E (11764081_at) / Fold change /veh FAM26E (11764081_at) / RFU ISYNA1 (11749810_s_at) / Fold change /veh ISYNA1 (11749810_s_at) / RFU ACY1 (11761880_at) / Fold change /veh ACY1 (11761880_at) / RFU 11764098_at / Fold change /veh 11764098_at / RFU SAMD14 (11745864_x_at) / Fold change /veh SAMD14 (11745864_x_at) / RFU NPB (11741838_a_at) / Fold change /veh NPB (11741838_a_at) / RFU TMPRSS6 (11731388_a_at) / Fold change /veh TMPRSS6 (11731388_a_at) / RFU KRTAP10-2 (11738614_at) / Fold change /veh KRTAP10-2 (11738614_at) / RFU ARHGAP8 /// PRR5-ARHGAP8 (11727945_x_at) / Fold change /veh ARHGAP8 /// PRR5-ARHGAP8 (11727945_x_at) / RFU KRTAP5-7 /// NADSYN1 (11734609_at) / Fold change /veh KRTAP5-7 /// NADSYN1 (11734609_at) / RFU RASL12 (11751679_a_at) / Fold change /veh RASL12 (11751679_a_at) / RFU CDKN2B (11736163_a_at) / Fold change /veh CDKN2B (11736163_a_at) / RFU PRF1 (11729649_at) / Fold change /veh PRF1 (11729649_at) / RFU, ZNF638 /// ZNF638-IT1 / Fold change vs veh, ZNF638 /// ZNF638-IT1 / RFU, PANK3 / Fold change vs veh, PANK3 / RFU, SH3YL1 / Fold change vs veh, SH3YL1 / RFU, ZEB2 / Fold change vs veh, ZEB2 / RFU, NRIP1 / Fold change vs veh, NRIP1 / RFU, PTTG1IP / Fold change vs veh, PTTG1IP / RFU, CAPN2 / Fold change vs veh, CAPN2 / RFU, MED14 / Fold change vs veh, MED14 / RFU, SNORA58 / Fold change vs veh, SNORA58 / RFU, C1orf63 / Fold change vs veh, C1orf63 / RFU, LRRFIP1 / Fold change vs veh, LRRFIP1 / RFU, NDUFAF7 / Fold change vs veh, NDUFAF7 / RFU, SLC12A2 / Fold change vs veh, SLC12A2 / RFU, IBTK / Fold change vs veh, IBTK / RFU, ESF1 / Fold change vs veh, ESF1 / Fold change vs veh, TMEM50B / RFU, TAOK1 / Fold change vs veh, TAOK1 / RFU, ACBD3 / Fold change vs veh, ACBD3 / RFU, TMA16 / Fold change vs veh, TMA16 / RFU, RWDD3 / Fold change vs veh, RWDD3 / RFU, BCAT1 / Fold change vs veh, BCAT1 / RFU, EDEM3 / Fold change vs veh, EDEM3 / RFU, TMEM33 / Fold change vs veh, TMEM33 / RFU, WDR75 / Fold change vs veh, WDR75 / RFU, AHCTF1 / Fold change vs veh, AHCTF1 / RFU, TFRC / Fold change vs veh, TFRC / RFU, ZDHHC17 / Fold change vs veh, ZDHHC17 / RFU, NOM1 / Fold change vs veh, NOM1 / RFU, ARL8B / Fold change vs veh, ARL8B / RFU, ZBTB11 / Fold change vs veh, ZBTB11 / RFU, TAMM41 / Fold change vs veh, TAMM41 / RFU, KIAA1704 /// LOC100996395 / Fold change vs veh, KIAA1704 /// LOC100996395 / RFU, ING1 / Fold change vs veh, ING1 / RFU, TRMT61B / Fold change vs veh, TRMT61B / RFU, FUBP3 / Fold change vs veh, FUBP3 / RFU, TP53 / Fold change vs veh, TP53 / RFU, TNKS2 / Fold change vs veh, TNKS2 / RFU, ZFP14 / Fold change vs veh, ZFP14 / RFU, ACTR2 / Fold change vs veh, ACTR2 / RFU, PPP3R1 / Fold change vs veh, PPP3R1 / RFU, PIK3R1 / Fold change vs veh, PIK3R1 / RFU, HNRNPA1 / Fold change vs veh, HNRNPA1 / RFU, RNF170 / Fold change vs veh, RNF170 / RFU, ZNF28 / Fold change vs veh, ZNF28 / RFU, RNGTT / Fold change vs veh, RNGTT / RFU, OGT / Fold change vs veh, OGT / RFU, BRD1 / Fold change vs veh, BRD1 / RFU, MARS / Fold change vs veh, MARS / RFU, ZNF655 / Fold change vs veh, ZNF655 / RFU, FAHD1 / Fold change vs veh, FAHD1 / RFU, BDP1 / Fold change vs veh, BDP1 / RFU, LRRCC1 / Fold change vs veh, LRRCC1 / RFU, ARID1A / Fold change vs veh, ARID1A / RFU, ZNF146 / Fold change vs veh, ZNF146 / RFU, ZNF330 / Fold change vs veh, ZNF330 / RFU, GPN3 / Fold change vs veh, GPN3 / RFU, C9orf123 / Fold change vs veh, C9orf123 / RFU, N4BP2L2 / Fold change vs veh, N4BP2L2 / RFU, ARFIP1 / Fold change vs veh, ARFIP1 / RFU, FAM179B / Fold change vs veh, FAM179B / RFU, BCL10 / Fold change vs veh, BCL10 / RFU, UHRF1BP1L / Fold change vs veh, UHRF1BP1L / RFU, BET1 / Fold change vs veh, BET1 / RFU, CNOT2 / Fold change vs veh, CNOT2 / RFU, ZNF268 / Fold change vs veh, ZNF268 / Fold change vs veh, ZNF507 / RFU, DGCR2 / Fold change vs veh, DGCR2 / RFU, WDSUB1 / Fold change vs veh, WDSUB1 / Fold change vs veh, HSP90B1 /// MIR3652 / RFU, ADSS / Fold change vs veh, ADSS / RFU, GK / Fold change vs veh, GK / RFU, ZNF148 / Fold change vs veh, ZNF148 / RFU, TAF9 / Fold change vs veh, TAF9 / RFU, SLC1A5 / Fold change vs veh, SLC1A5 / RFU, SLMO2 / Fold change vs veh, SLMO2 / RFU, ABCC4 / Fold change vs veh, ABCC4 / RFU, LOC101060439 /// RAP1B / Fold change vs veh, LOC101060439 /// RAP1B / RFU, RFX7 / Fold change vs veh, RFX7 / RFU, GTPBP10 / Fold change vs veh, GTPBP10 / RFU, CNEP1R1 / Fold change vs veh, CNEP1R1 / RFU, BIVM-ERCC5 /// ERCC5 / Fold change vs veh, BIVM-ERCC5 /// ERCC5 / RFU, ILF3 / Fold change vs veh, ILF3 / RFU 11762660_at / Fold change /veh 11762660_at / RFU VCAN (11757783_s_at) / Fold change /veh VCAN (11757783_s_at) / RFU DDX43 (11728927_at) / Fold change /veh DDX43 (11728927_at) / RFU KRT8 (11758188_x_at) / Fold change /veh KRT8 (11758188_x_at) / RFU NKD1 (11759106_at) / Fold change /veh NKD1 (11759106_at) / RFU SRD5A1 (11742802_a_at) / Fold change /veh SRD5A1 (11742802_a_at) / RFU TPSAB1 /// TPSB2 (11721975_s_at) / Fold change /veh TPSAB1 /// TPSB2 (11721975_s_at) / RFU GSTM3 (11746129_a_at) / Fold change /veh GSTM3 (11746129_a_at) / RFU IL23R (11737362_x_at) / Fold change /veh IL23R (11737362_x_at) / RFU TMEM51 (11727254_a_at) / Fold change /veh TMEM51 (11727254_a_at) / RFU PIWIL2 (11732686_x_at) / Fold change /veh PIWIL2 (11732686_x_at) / RFU ORM1 (11744905_x_at) / Fold change /veh ORM1 (11744905_x_at) / RFU CCDC152 (11743942_at) / Fold change /veh CCDC152 (11743942_at) / RFU ECM1 (11717891_a_at) / Fold change /veh ECM1 (11717891_a_at) / RFU IL23R (11748794_a_at) / Fold change /veh IL23R (11748794_a_at) / RFU TNFAIP8L3 (11732012_x_at) / Fold change /veh TNFAIP8L3 (11732012_x_at) / RFU MBOAT4 (11741988_at) / Fold change /veh MBOAT4 (11741988_at) / RFU 11764193_at / Fold change /veh 11764193_at / RFU TMEM53 (11763286_at) / Fold change /veh TMEM53 (11763286_at) / RFU MAGEB2 (11727129_at) / Fold change /veh MAGEB2 (11727129_at) / RFU TMEM200A (11744735_a_at) / Fold change /veh TMEM200A (11744735_a_at) / RFU CCDC152 (11751479_a_at) / Fold change /veh CCDC152 (11751479_a_at) / RFU FAM211A (11726209_a_at) / Fold change /veh FAM211A (11726209_a_at) / RFU RGS16 (11746705_a_at) / Fold change /veh RGS16 (11746705_a_at) / RFU VCAN (11755009_s_at) / Fold change /veh VCAN (11755009_s_at) / RFU RHOB (11743442_s_at) / Fold change /veh RHOB (11743442_s_at) / RFU RGS16 (11720943_a_at) / Fold change /veh RGS16 (11720943_a_at) / RFU RGS16 (11720944_at) / Fold change /veh RGS16 (11720944_at) / RFU, VPS4B / Fold change vs veh, VPS4B / RFU, CREB1 / Fold change vs veh, CREB1 / RFU, DNAJC13 / Fold change vs veh, DNAJC13 / RFU, GNAQ / Fold change vs veh, GNAQ / RFU, CDK5R1 / Fold change vs veh, CDK5R1 / RFU, ZRANB3 / Fold change vs veh, ZRANB3 / RFU, CUL4A / Fold change vs veh, CUL4A / RFU, CCNY / Fold change vs veh, CCNY / RFU, UFL1 / Fold change vs veh, UFL1 / RFU, COG3 / Fold change vs veh, COG3 / RFU, DIAPH2 / Fold change vs veh, DIAPH2 / RFU, SKA2 / Fold change vs veh, SKA2 / RFU, AFF3 / Fold change vs veh, AFF3 / RFU, LMF1 / Fold change vs veh, LMF1 / RFU, IPO11 / Fold change vs veh, IPO11 / RFU, DFFB / Fold change vs veh, DFFB / RFU, FOXP1 / Fold change vs veh, FOXP1 / RFU, CARD8 / Fold change vs veh, CARD8 / RFU, STRN3 / Fold change vs veh, STRN3 / RFU, ADK / Fold change vs veh, ADK / RFU, RASSF2 / Fold change vs veh, RASSF2 / RFU, WIPF1 / Fold change vs veh, WIPF1 / RFU, LARP1B / Fold change vs veh, LARP1B / RFU, RASA1 / Fold change vs veh, RASA1 / RFU, RB1 / Fold change vs veh, RB1 / RFU, PPFIA1 / Fold change vs veh, PPFIA1 / RFU, MAT2A / Fold change vs veh, MAT2A / RFU, CCT5 / Fold change vs veh, CCT5 / RFU, WDR92 / Fold change vs veh, WDR92 / RFU, CUX1 / Fold change vs veh, CUX1 / RFU, TTC7A / Fold change vs veh, TTC7A / RFU, TMEM135 / Fold change vs veh, TMEM135 / RFU, DEPTOR / Fold change vs veh, DEPTOR / RFU, CPM / Fold change vs veh, CPM / RFU, DNAJB6 / Fold change vs veh, DNAJB6 / RFU, CACNA2D3 / Fold change vs veh, CACNA2D3 / RFU, DTX4 / Fold change vs veh, DTX4 / RFU, TFCP2 / Fold change vs veh, TFCP2 / RFU, GMCL1 /// GMCL1P1 / Fold change vs veh, GMCL1 /// GMCL1P1 / RFU, AEBP2 / Fold change vs veh, AEBP2 / RFU, SNHG1 /// SNORD22 /// SNORD25 /// SNORD26 /// SNORD27 /// SNORD28 /// SNORD29 /// SNORD31 / Fold change vs veh, SNHG1 /// SNORD22 /// SNORD25 /// SNORD26 /// SNORD27 /// SNORD28 /// SNORD29 /// SNORD31 / Fold change (Aza/veh), C12orf56 (ProbeSet 11735607_a_at) / Fold change (ACY-1035/veh), C12orf56 (ProbeSet 11735607_a_at) / Fold change (Aza/veh), FGFR1OP (ProbeSet 11751329_s_at) / Fold change (ACY-1035/veh), FGFR1OP (ProbeSet 11751329_s_at) / Fold change (Aza/veh), VPS36 (ProbeSet 11739960_a_at) / Fold change (ACY-1035/veh), VPS36 (ProbeSet 11739960_a_at) / RFU SYPL1 (11715823_x_at) / Fold change /veh SYPL1 (11715823_x_at) / RFU IGFBP7 (11715501_s_at) / Fold change /veh IGFBP7 (11715501_s_at) / RFU REEP3 (11722064_at) / Fold change /veh REEP3 (11722064_at) / RFU IGLL1 (11728026_x_at) / Fold change /veh IGLL1 (11728026_x_at): dose or concentration left out as unconfirmed
Conditions: MV-4-11 cells, 48 hours

For `Nc1ccc(-c2cccs2)cc1NC(=O)c1ccc2c(c1)cc(C1CC1)n2CCN1CCOCC1` [ACY-1035], the “Fold change /veh FAM167A (11723789_a_at)” value was 1.14.
